Experimental data published in patent US20120225019A1, “Dual Fluorescence Assay For Determining Viability Of Parasitic Or Non-Parasitic Worms” (priority 2009, published 2012).
“Also recorded” adds a separate entry of the source. Where a name gives a salt, the structure may show the parent alone.

Tests used:
[1] = test system: Schistosoma mansoni schistosomula; experiment: dual-fluorescence (PI/FDA) schistosomula viability assay; assay type: cell-based; settings: 10 μM, 24 hr
Procedure: Schistosoma mansoni (Puerto Rican strain) infected Biomphalaria glabrata snails were provided by Fred Lewis (Biomedical Research Institute, Rockville, Md., USA). Cercariae were shed from infected snails by exposure to light (60 min at room temperature, RT) and subsequently converted to schistosomula by mechanical transformation (Colley D G, Wikel S K (1974) Schistosoma mansoni: simplified method for the production of schistosomules. Experimental Parasitology 35: 44-51). Schistosomula were purified away from cercarial tails by centrifugation through a 60% percoll gradient (Lazdins J K, Stein M J, David J R, Sher A (1982) Schistosoma mansoni: rapid isolation and purification of schistosomula of different developmental stages by centrifugation on discontinuous density gradients of Percoli. Experimental Parasitology 53: 39).
Microscope examination was used to assess the quantity and quality of purified schistosomula. Schistosomula were cultured at 37° C. in T25 tissue culture flasks containing 9 ml DMEM (Dulbecco's Modified Eagle Medium, Sigma-Aldrich), lacking phenol red but containing 4500 mg/I glucose, supplemented with 10% foetal calf serum, 2 mM L-glutamine, 200 U/ml penicillin, 200 μg/ml streptomycin (all Sigma-Aldrich) in an atmosphere of 5% CO2 for 24 hr before any further experimental manipulations proceeded. Negligible parasite death occurred in this media during the 24 hr culturing period. Following this, schistosomula were aliquoted into black-sided, flat-bottom (optically clear), 96-well microtiter plates (Fisher Scientific) in 200 μl media or black-sided, flat-bottom (optically clear), 384-well microtiter plates (Matrix) in 40 μl media.
Stock solutions of all compounds were made up at 1 mM in appropriate solvents and stored at −80° C. All compounds were added to black-sided, flat-bottom (optically clear), 96-well microtiter plates containing schistosomula (1000 parasites/well in triplicate) at 10 μM concentrations. Schistosomula were cultured (as already indicated; 37° C., 5% CO2) in the presence of each compound for 24 hr before viability levels were assessed.
After the 24 hr culturing period in the presence of test compounds, and prior to addition of fluorescent dyes, all schistosomula were washed three times to remove test compound and culture media supplements. Each wash consisted of centrifuging microtiter plates containing schistosomula at 100×g for 5 min, removal of half the old culture media and replacement with an equal quantity of fresh DMEM (lacking phenol red). After washing the parasites, […] and FDA were simultaneously added to each well of the microtiter plate to obtain a final concentration of 2.0 μg/ml and 0.5 μg/ml respectively.
The 96-well microtiter plates, now containing fluorescently labeled parasites, were subsequently loaded into a BMG Labtech Polarstar Omega plate reader containing appropriate filters for the simultaneous detection of PI (544 nm excitation/620 nm emission) and FDA (485 nm excitation/520 nm emission). All fluorescent values were obtained with the plate reader incubator set at 37° C. to ensure efficient esterase conversion of FDA to fluorescein within live schistosomula. The plate reader automatically sets the photo multiplier tube (PMT) gain for each fluorescent dye and this may slightly vary between experiments. Inclusion of appropriate control samples (live and dead schistosomula) compensates for any inter-plate variations in gain settings.
All data were exported into Microsoft Excel for organization and into Minitab (Version 14) for statistical analyses. A One-Way Analysis of Variance (ANOVA) followed by post hoc testing with Fisher's least significant difference (LSD) was used to detect statistical differences between treatments. […].
Numbers of live and dead schistosomula in each well of a microtiter plate were calculated using the following equations: […]

[2] = test system: schistosomula; settings: previously published activities; cited from earlier work
[3] = test system: Schistosoma mansoni schistosomula; experiment: microscopic examination of compound-treated schistosomula; assay type: cell-based; settings: 24 hr
Procedure: Live and heat killed schistosomula stained with optimal concentrations (empirically derived from Jones K, Senft J (1985) An improved method to determine cell viability by simultaneous staining with fluorescein diacetate-propidium iodide. The Journal of Histochemistry and Cytochemistry 33: 77-79) of propidium iodide (PI, 2.0 μg/ml; Sigma-Aldrich), fluorescein diacetate (FDA, 0.5 μg/ml; Sigma-Aldrich) or both fluorophores were visualized at ×100 magnification using a Leica Axioplan microscope equipped with FITC (494 excitation) and Rhodamine (536 excitation) filters and a mercury vapor light source. A Hamamatsu CA74295 camera with Wasabi Version 1.4 software was used to capture photographic images of stained schistosomula.
Schistosomula, co-incubated with test compounds, were fluorescently visualized as above or unstained at ×100 magnification using an Olympus CK2 inverted microscope equipped with a stage extension plate and specimen holder for handling microtiter plates. A Kodak EasyShare DX7440 digital camera was used to capture images of unstained schistosomula.

[4] = test system: Haemonchus contortus L3 larvae; experiment: Haemonchus contortus FTIR; assay type: cell-based; settings: worm samples; 3 mg/ml in DMSO added at 1/100; 24 hours at 37° C.
Procedure: 1. Haemonchus contortus L3 larvae were exsheated in 5% sodium hypochlorite for 10 minutes.
2. Following exsheathment the larvae were pelleted by centrifugation at 200×g for 2 minutes, the supernatant was removed and replaced with 1×PBS. This wash step was repeated twice to remove any traces of sodium hypochlorite then resuspended in DMEM containing L-glutamine and pen-strep but lacking in phenol red.
3. The larvae were aliquoted into a 384 well plate at approx. 100 larvae per well.
4. Compounds to be tested (aldicarb, levamisole and ivermectin) were made up at 3 mg/ml in DMSO then added to test wells at 1/100.
5. An identical quantity of DMSO, lacking any compound, was added to control wells.
6. The larvae were cultured for 24 hours at 37° C. following the addition of compounds (see FIG. 11). Wells containing media and compounds, but lacking in larvae, were also set up as controls for background.
For FTIR, two samples were run from each well containing larvae. The first consisted of 10 μl of supernatant taken from the top of the well without any disturbance. The second consisted of 10 μl containing worms and any sediment stirred up from the bottom of the well. A third 10 μl sample of media containing compounds but no larvae was also run for elimination of drug chemistry. Samples were dried at 50° C. for 45 minutes to prevent interference from water before being loaded into the FTIR machine.
Collected spectra were analysed using PyChem software. Two analyses were run for all data: principle components analysis (PCA; which compresses all of the data into smaller, discreet (2) components without there being any assumptions made) and discriminate function analysis (DFA; which takes information provided about class structure to run an algorithm to maximise distances between groups (different drug treatments) and minimise distances within groups (replicates of the same drug treatment)). The circles on the DFA graphs represent mean group centres i.e. treatments that segregate with confidence intervals of 95% (inner circle) and 99% (outer circle).

[5] = test system: in vitro cultured, mechanically-transformed schistosomula; settings: 10 μM, 24 hr after treatment; cited from earlier work
[6] = test system: Schistosoma mansoni schistosomula; experiment: dual-fluorescence (PI/FDA) schistosomula viability assay; assay type: cell-based

Molecule	schistosomula viability by dual-fluorescent viability assay [1]	previously described effect on schistosomula phenotype [2]	other results
O=C(C1CCCCC1)N1CC(=O)N2CCc3ccccc3C2C1 (stereo not shown) [praziquantel]	did not affect schistosomula viability; also recorded: does not kill in vitro	shape alteration (‘rounded’ phenotype)	schistosomula phenotype by microscopic examination ([3]; 10 μM): strong rounded phenotype
COC(=O)[C@H]1[C@H]2C[C@@H]3c4[nH]c5cc(OC)ccc5c4CCN3C[C@H]2C[C@@H](OC(=O)/C=C/c2cc(OC)c(OC)c(OC)c2)[C@@H]1OC [rescinnamine]	none showed strong decreases in viability	–	–
ivermectin	–	–	FTIR separation of treatment from DMSO control, worms [4]: good separation
CC(C)=CCC[C@]1(C)C=Cc2c(O)c3c(c(CC=C(C)C)c2O1)O[C@]12C(=C[C@@H]4C[C@H]1C(C)(C)O[C@@]2(C/C=C(/C)C(=O)O)C4=O)C3=O [gambogic acid]	induced measurable death	induce schistosomula mortality	–
C[C@@](Cc1ccc(O)c(O)c1)(NN)C(=O)O [carbidopa]	none showed strong decreases in viability	–	–
CC[C@@H](C(=O)[C@@H](C)[C@@H](O)[C@H](C)[C@@H]1O[C@@H]([C@@H](CC)C(=O)O)CC[C@@H]1C)[C@H]1O[C@]2(C=C[C@@H](O)[C@]3(CC[C@@](C)([C@H]4CC[C@](O)(CC)[C@H](C)O4)O3)O2)[C@H](C)C[C@@H]1C [sodium salinomycin]	fluorescent viability measurements similar to those derived from untreated parasites	induce schistosomula mortality	schistosomula phenotype by microscopic examination ([3]; 10 μM): strongly FDA positive (with some PI positive cells) (FIG. 6C), dark and granular (FIG. 6H), but motile
CC(C)COCC(CN(Cc1ccccc1)c1ccccc1)N1CCCC1 (stereo not shown) [bepridil]	none showed strong decreases in viability	–	–
CNC(=O)O/N=C/C(C)(C)SC [aldicarb]	–	–	FTIR separation of treatment from DMSO control, worms [4]: good separation
c1ccc([C@H]2CN3CCSC3=N2)cc1 [levamisole]	–	–	FTIR separation of treatment from DMSO control, worms [4]: good separation
CNCCC(Oc1ccc(C(F)(F)F)cc1)c1ccccc1 (stereo not shown) [fluoxetine hydrochloride]	did not affect schistosomula viability	induce schistosomula over-activity	–
O=C(Nc1ccc([N+](=O)[O-])cc1Cl)c1cc(Cl)ccc1O [niclosamide]	fluorescent viability measurements similar to those derived from untreated parasites	induce schistosomula mortality	–
CC(=O)OC[C@H]1O[C@@H]([S-])[C@H](OC(C)=O)[C@@H](OC(C)=O)[C@@H]1OC(C)=O.CCP(CC)CC.[Au+] [auranofin]	–	–	lethality to schistosomula estimated by light microscopy [5]: 100%; auranofin-mediated mortality compared to vehicle treated (DMSO) or untreated parasites ([6]; 5 μM, 2.5 μM and 1.25 μM, 24 hr): Statistically-significant; anti-schistosomula effect (viability per drug concentration) ([6]; 24 hours post-treatment): clear and titratable anti-schistosomula effect; anti-schistosomula LD50 activity ([6]; auranofin titration series, fluorescent-based microtiter plate quantification, 24 hr): 0.82 µM; PI/FDA staining of schistosomula by epifluorescent microscopy ([3]; 1 μM auranofin): displayed cells that were stained with either PI or FDA throughout the body; death confirmed by microscopic examination of schistosomula ([3]; 10 μM): 100%
C[C@@H]1[C@H](O)[C@@H](C)/C=C/C=C/C=C/C=C/C=C/C=C/C=C/[C@H](O[C@@H]2O[C@H](C)[C@@H](O)[C@H](N)[C@@H]2O)C[C@@H]2O[C@](O)(C[C@@H](O)C[C@@H](O)[C@H](O)CC[C@@H](O)C[C@@H](O)CC(=O)O[C@H]1C)C[C@H](O)[C@H]2C(=O)O [amphotericin b]	induced measurable death	induce schistosomula mortality	–
CC[C@]1(O)C[C@@H]2CN(CCc3c([nH]c4ccccc34)[C@@](C(=O)OC)(c3cc4c(cc3OC)N(C)[C@H]3[C@@](O)(C(=O)OC)[C@H](OC(C)=O)[C@]5(CC)C=CCN6CC[C@]43[C@@H]65)C2)C1 [vinblastine]	none showed strong decreases in viability	–	–
Clc1ccc(COC(Cn2ccnc2)c2ccc(Cl)cc2Cl)c(Cl)c1 (stereo not shown) [miconazole nitrate]	did not affect schistosomula viability	shape alteration (‘rounded’ phenotype)	–
Nc1[nH]c(=O)ncc1F [flucytosine]	none showed strong decreases in viability	–	–
Cc1cc(C2CCCCC2)n(O)c(=O)c1 [ciclopirox]	none showed strong decreases in viability	–	schistosomula phenotype by microscopic examination ([3]; 10 μM): shape alterations in schistosomula phenotype
CN(C)CCCN1c2ccccc2Sc2ccc(Cl)cc21 [chlorpromazine hydrochloride]	did not affect schistosomula viability	induce schistosomula over-activity	–
